Assay [1] concerns ESR1 transcription in MVLN cells. Put plainly: MVLN reporter assay: repression of ESR1 transcription (luciferase signal). It is filed as cell-based. The following applies: Homo sapiens, MVLN, 24 h, luciferase signal after 24 h, read-out: MVLN reporter assay, IC50 [M] (arithmetic mean). An excerpt:
KAT6A controls transcription of the ESR1 gene in breast cancer cells. Compound treatment that interferes with this mechanism was quantified using MVLN cells. These cells constitutively express the ER and are stably transfected with the luciferase (LUC) reporter gene and the corresponding hormone responsive element derived from the 5′-flanking region of the Xenopus Vitellogenin A2 gene (Pons et al., 1990, Demirpense et al., 1993, Joyeux et al., 1993). The repressive effect on ERα transcription activity of a test chemical is directly related to the luciferase measured in the lysate of treated MVLN cells. […] Each sample was prepared as duplicate and rim wells were excluded. For luciferase signal determination 100 μl of a 1:1 mixture of Steadylite plus (Perkin Elmer; 6016759) and assay medium was added after 24 h for 15 minutes and measured in Victor X3 (Perkin Elmer). To exclude any effects caused by cell loss during the treatment, cell density was determined using Alamar Blue (Invitrogen; DAL1100). Prior to the luciferase measurement 10 μl Alamar Blue were added to each well and the plates were incubated for 2 h in the incubator. Then fluorescence was measured with Victor X3 (Perkin Elmer) at 530 nm/590 nm.

For assay [2], the target named is T1, Recombinant human His-tagged Kat6a protein (amino acids 194-810) (Homo sapiens, UniProt Q92794).
T1 construct: Kat6a protein (amino acids 194-810); His
T1 sequence (Q92794 194-810): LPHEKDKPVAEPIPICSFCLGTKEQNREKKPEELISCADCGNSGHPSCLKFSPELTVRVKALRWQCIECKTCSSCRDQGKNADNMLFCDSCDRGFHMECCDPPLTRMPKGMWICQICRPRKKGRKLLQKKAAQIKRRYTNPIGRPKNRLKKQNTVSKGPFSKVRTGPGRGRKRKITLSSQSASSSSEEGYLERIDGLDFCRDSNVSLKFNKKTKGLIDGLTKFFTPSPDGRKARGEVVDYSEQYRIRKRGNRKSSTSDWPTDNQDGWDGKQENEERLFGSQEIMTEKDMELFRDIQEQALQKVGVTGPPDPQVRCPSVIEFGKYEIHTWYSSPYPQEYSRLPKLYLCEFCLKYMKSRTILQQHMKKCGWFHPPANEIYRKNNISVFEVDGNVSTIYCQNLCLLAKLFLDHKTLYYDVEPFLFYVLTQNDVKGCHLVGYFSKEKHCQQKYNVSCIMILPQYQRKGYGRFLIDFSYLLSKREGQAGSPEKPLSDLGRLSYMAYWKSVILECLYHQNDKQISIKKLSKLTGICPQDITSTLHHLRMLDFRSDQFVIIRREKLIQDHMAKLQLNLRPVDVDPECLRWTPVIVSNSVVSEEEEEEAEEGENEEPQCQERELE
As to the kind of experiment: Kat6a activity assay (TR-FRET, acetylation of Histone-H4-derived peptide). Type of assay: biochemical. The conditions noted are these: 60 mins at 22° C., 220 nM H4 peptide, 600 nM Acetyl Coenzyme A, read-out: KAT6A - DPF/HAT domain IC50 [mol/l] (arithmetic mean). As for the experimental part: Kat6a inhibitory activities of the compounds described in the present invention were quantified using a Fluorescence Resonance Energy Transfer (TR-FRET) assay which measures acetylation of a synthetic, biotinylated Histone-H4-derived peptide by the enzyme.
In this case 50 nl DMSO were used instead of compounds. […] IC50 values were determined by regression analysis based on a 4 parameter equation (minimum, maximum, ICM, Hill; Y=Max+(Min−Max)/(1+(X/ICso) Hill) using the Screener Software (Genedata).
A general note: Time-resolved FRET reads energy transfer from a long-lived donor to a nearby acceptor.

Some results are limits rather than exact numbers.

As for `CN(C)c1ccccc1S(=O)(=O)NC(=O)c1cc2c(F)cc(N3CCC3)cc2o1` [Example 11, 6-(Azetidin-1-yl)-N-[2-(dimethylamino)benzene-1-sulfonyl]-4-fluoro-1-benzofuran-2-carboxamide], the IC50 in assay [1] came out at 1.45e-07 M; in assay [2], 75.2 nM.

For the compound `Cc1cccc(O)c1S(=O)(=O)NC(=O)c1cc2c(F)cc(N3CCC3)cc2o1` [Example 64, 6-(Azetidin-1-yl)-4-fluoro-N-(2-hydroxy-6-methylbenzene-1-sulfonyl)-1-benzofuran-2-carboxamide], the IC50 in assay [1] came to 8e-06 M; in assay [2], 85.1 nM.

Consider `N#CCCc1ccc(S(=O)(=O)NC(=O)c2cc3c(F)cc(N4CCC4)cc3o2)cc1` [Example 68, 6-(Azetidin-1-yl)-N-[4-(2-cyanoethyl)benzene-1-sulfonyl]-4-fluoro-1-benzofuran-2-carboxamide], for which the IC50 came to 1.26e-05 M in assay [1] and 652 nM in assay [2].

Turning to `Cc1ncccc1S(=O)(=O)NC(=O)c1cc2c(F)cc(N3CCC3)cc2o1` [Example 94, 6-(Azetidin-1-yl)-4-fluoro-N-(2-methylpyridine-3-sulfonyl)-1-benzofuran-2-carboxamide], the IC50 in assay [1] was above 2e-05 M; in assay [2] it was 1510 nM.

Turning to `Cc1ccc2c(S(=O)(=O)NC(=O)c3cc4c(F)cc(N5CCC5)cc4o3)nn(C)c2n1` [Example 145, 6-(Azetidin-1-yl)-N-(1,6-dimethyl-1H-pyrazolo[3,4-b]pyridine-3-sulfonyl)-4-fluoro-1-benzofuran-2-carboxamide], the results for the IC50 in assay [1] and in assay [2] were 8.4e-06 M and 402 nM, respectively.

Take `O=C(NS(=O)(=O)c1cccc2c(N3CCOCC3)cccc12)c1cc2c(F)cc(N3CCC3)cc2o1` [Example 188, 6-(Azetidin-1-yl)-4-fluoro-N-[5-(morpholin-4-yl)naphthalene-1-sulfonyl]-1-benzofuran-2-carboxamide]: the IC50 worked out at 2.55e-06 M in assay [1] and 132 nM in assay [2].

For the compound `COC(=O)CCc1ccccc1S(=O)(=O)NC(=O)c1cc2c(F)cc(N3CCC3)cc2o1` [Example 102, Methyl 3-(2-{[6-(azetidin-1-yl)-4-fluoro-1-benzofuran-2-carbonyl]sulfamoyl}phenyl)propanoate], the IC50 in assay [1] was 4.07e-06 M; in assay [2] it was 116 nM.

Regarding `O=C(NS(=O)(=O)c1cc(C(F)(F)F)ccc1NCC(F)F)c1cc2c(F)cc(N3CCC3)cc2o1` [Example 92, 6-(Azetidin-1-yl)-N-{2-[(2,2-difluoroethyl)amino]-5-(trifluoromethyl)benzene-1-sulfonyl}-4-fluoro-1-benzofuran-2-carboxamide], the IC50 in assay [1] is above 2e-05 M; in assay [2], 464 nM.

On to `CN1CCc2c(cccc2S(=O)(=O)NC(=O)c2cc3c(F)cc(N4CC(F)C4)cc3o2)C1` [Example 112, 4-Fluoro-6-(3-fluoroazetidin-1-yl)-N-(2-methyl-1,2,3,4-tetrahydroisoquinoline-5-sulfonyl)-1-benzofuran-2-carboxamide], for which the values for the IC50 in assay [1] and in assay [2] were above 2e-05 M and 5210 nM, respectively.

With `O=C(NS(=O)(=O)c1cc(CO)ccc1OC(F)(F)F)c1cc2c(F)cc(N3CCC3)cc2o1` [Example 63, 6-(Azetidin-1-yl)-4-fluoro-N-[5-(hydroxymethyl)-2-(trifluoromethoxy)benzene-1-sulfonyl]-1-benzofuran-2-carboxamide], the IC50 in assay [1] stood at 6.48e-06 M; in assay [2], 131 nM.

With `CCOc1cccc(S(=O)(=O)NC(=O)c2cc3c(F)cc(N4CCC4)cc3o2)c1` [Example 75, 6-(Azetidin-1-yl)-N-(3-ethoxybenzene-1-sulfonyl)-4-fluoro-1-benzofuran-2-carboxamide], the IC50 in assay [1] was determined as 2.76e-06 M; in assay [2] it was 337 nM.

Consider `O=C(NS(=O)(=O)c1cc(Br)ccc1OC(F)(F)F)c1cc2c(F)cc(N3CCC3)cc2o1` [Example 82, 6-(Azetidin-1-yl)-N-[5-bromo-2-(trifluoromethoxy)benzene-1-sulfonyl]-4-fluoro-1-benzofuran-2-carboxamide], for which the IC50 turned out to be 3.66e-07 M in assay [1] and 19.3 nM in assay [2].

For the origin of these results see US20240279207A1, “SUBSTITUTED ACYL SULFONAMIDES FOR TREATING CANCER” (The Broad Institute, Inc., priority 2020, published 2024).
